Test results reported in ChEMBL document CHEMBL4342516, “Discovery of Membrane-Bound Pyrophosphatase Inhibitors Derived from an Isoxazole Fragment” (ACS Med Chem Lett, 2020).
Activity calls are given as the source filed them. The calls are words filed in the database; no cut-off is given here.

How the values were obtained:
[1] = Inhibition of Thermotoga maritima membrane bound pyrophosphatase at 100 uM using sodium pyrophosphate as substrate preincubated for 5 mins followed by substrate addition and measured after 5 mins by spectrophotometry
Thermotoga maritima = test: Inhibition of Thermotoga maritima membrane bound pyrophosphatase at 100 uM using sodium pyrophosphate as substrate preincubated for 5 mins followed by substrate addition and measured after 5 mins by spectrophotometry relative to control
Plasmodium falciparum [2] = test: (§1) Inhibition of Plasmodium falciparum 3D7 pyrophosphatase-VP1 expressed in baculovirus infected insect cells using sodium pyrophosphate as substrate preincubated for 5 mins followed by substrate addition and measured after 10 mins by spectrophotometry
Plasmodium falciparum [3] = test: Antiplasmodial activity against Plasmodium falciparum 3D7 infected in human erythrocytes assessed as growth inhibition after 72 hrs by SYBR Gren-I fluorescent dye based method; assay type: functional, organism-based; details: 3D7, 72 h
[4] = as §1

| SMILES | IC50 ([1]; read-out: IC50) | also measured |
| --- | --- | --- |
| CCOC(=O)c1ccc(S(=O)(=O)NC2=NC(=O)CS2)cc1 | 120 µM | inhibition (Thermotoga maritima): > 50% |
| O=C(O)c1cc(-c2ccccc2[N+](=O)[O-])on1 | 71 µM | inhibition (Thermotoga maritima): > 50% |
| CC(C)(C)c1cccc(-c2cc(C(=O)Oc3ccccc3Br)no2)c1 | 6.7 µM |  |
| CC(C)(C)c1cc(C(=O)Nc2ccc([N+](=O)[O-])cc2)cc(C(C)(C)C)c1 | 100 µM |  |
| CC(C)(C)c1cc(C(=O)Nc2nccs2)cc(C(C)(C)C)c1 | 39 µM |  |
| O=C(O)c1cc(-c2ccccc2)n[nH]1 | 130 µM |  |
| CC(C)(C)c1cc(C(=O)Nc2ccccc2Br)cc(C(C)(C)C)c1 | 47 µM |  |
| Cc1nc(-c2cc(C(=O)O)no2)cs1 | 17 µM |  |
| O=C(Oc1ccccc1Br)c1cnc(-c2ccccc2)s1 | 48 µM |  |
| CCOC(=O)c1cc(-c2ccc(OC)c(S(=O)(=O)Nc3cccc4c3OCO4)c2)on1 | 36 µM |  |
| Nc1ccc(S(=O)(=O)N2CCCC2C(=O)O)cc1 (stereo not given) | 110 µM | inhibition (Thermotoga maritima): > 50% |
| CC(C)(C)c1cc(C(=O)Nc2ccc(S(N)(=O)=O)cc2)cc(C(C)(C)C)c1 | 47 µM |  |
| CC(C)(C)c1cc(C(=O)Nc2nc3ccccc3s2)cc(C(C)(C)C)c1 | 91 µM |  |
| CC(C)(C)c1cc(C(=O)NCC(=O)O)cc(C(C)(C)C)c1 |  | IC50 [1]: Not Active |
| CC(C)(C)c1cc(CCC(=O)O)cc(C(C)(C)C)c1 |  | IC50 [1]: Not Active |
| CCOC(=O)c1cc(-c2cc(C(C)(C)C)cc(C(C)(C)C)c2)on1 | 72 µM |  |
| CC(C)(C)c1cc(-c2cc(C(=O)Oc3ccccc3Br)no2)cc(C(C)(C)C)c1 | 10 µM | inhibition (Plasmodium falciparum [2]): inactive |
| CC(C)(C)c1cc(C(=O)NCCCn2ccnc2)cc(C(C)(C)C)c1 | 210 µM |  |
| Cc1cc(C)cc(-c2cc(C(=O)Nc3ccccc3Br)no2)c1 |  | IC50 [1]: Not Active |
| Cc1cc(C)cc(-c2cc(C(=O)Oc3ccccc3Br)no2)c1 | 6.9 µM | IC50 (Plasmodium falciparum [3]): 99 µM; IC50 [4]: 55 µM |
| O=C(O)c1cnc(-c2ccccc2)s1 | 29 µM |  |
| Cc1nc(-c2cc(C(=O)Oc3ccccc3Br)no2)cs1 | 460 µM |  |
| Cc1c(-c2cc(C(=O)O)no2)cnn1C |  | IC50 [1]: Not Active |
| O=C(O)c1cc(-c2ccc([N+](=O)[O-])cc2)[nH]n1 |  | IC50 [1]: Not Active |
| O=c1[nH]c2ccc(S(=O)(=O)CCO)cc2o1 | 43 µM | inhibition (Thermotoga maritima): > 50% |
| Cc1cccc(-c2cc(C(=O)Oc3ccccc3Br)no2)c1 | 6.1 µM |  |
| Cc1cc(C)cc(-c2cc(C(=O)Oc3ccccc3)no2)c1 | 26 µM |  |
| O=C(O)c1csc(-c2ccc([N+](=O)[O-])cc2)n1 | 80 µM |  |
